According to patent US20240315241A1, “ANTIMICROBIAL POLYMERIC COMPOSITION” (priority 2021, published 2024):

How the values were obtained:
[1] = tested on: blend of Pseudomonas aeruginosa ATCC 15442, Staphylococcus aureus ATCC 6538, Escherichia coli ATCC 10536, Enterococcus hirae ATCC 10541 and Candida albicans …; assay: Antimicrobial activity, zone of inhibition on TSA Petri dishes (Example 4); format: cell-based; details: aqueous solution pH 8.3, [Ag+]=0.1%, 100 μl, 37° C. for 24 h
Description: The antimicrobial activity of an aqueous solution at pH 8.3 of Na^+3[Ag^+(MPA^2−)2]^3− with an ionic concentration of [Ag+]=0.1% was tested against the following blend of microorganism strains (bought from Diagnostic International Distribution S.p.A): Pseudomonas aeruginosa ATCC 15442, Staphylococcus aureus ATCC 6538, Escherichia coli ATCC 10536, Enterococcus hirae ATCC 10541 e Candida albicans ATCC 10231. For each microbial strain, the concentration of the blend was in the range 1.5×10^12−5×10^12 unity forming colonies (UFC). A volume of 100 μl of the blend was seeded in Petri dishes containing a non-selective culture medium TSA (Tryptone Soya Agar) and a sample of 100 μl of said aqueous solution of Na^+3[Ag^+(MPA^2−)2]^3− was put in the centre of each Petri dish in contact with the microbial blend. The Petri dishes were then incubated at 37° C. for 24 h.

SARS-Cov-2 [2] = assay: Antiviral effectiveness towards SARS-Cov-2: virus incubated on treated surface, replication in VeroE6 cells by qRT-PCR; format: cell-based; details: for ΔCt / Logarithmic difference: Ag+ 0.108% aqueous solution on surface; for ΔCt: vs untreated; for Logarithmic difference: vs untreated control
SARS-Cov-2 [3] = assay: Cytopathic effect in VeroE6 cells infected with treated SARS-Cov-2, optical microscopy

## Cc1nc([S-])sc1CC(=O)[O-].Cc1nc([S-])sc1CC(=O)[O-].[Ag+].[Na+].[Na+].[Na+] [Aqueous solution containing Ag, Na^+3[Ag^+(MPA^2−)2]^3−]
[1]
  zone of inhibition (of the microbial growth): circa 3 cm
SARS-Cov-2 [2]; virus 5 minutes, 24 hpi
  ΔCt: 3.04
  Logarithmic difference: −0.91
SARS-Cov-2 [2]; virus 5 minutes, 48 hpi
  ΔCt: 1.91
  Logarithmic difference: −0.57
SARS-Cov-2 [2]; virus 5 minutes, 72 hpi
  ΔCt: 0.61
  Logarithmic difference: −0.18
SARS-Cov-2 [2]; Ag+ 0.108%, at a time more distant from the infection
  reduction of the viral charge: not significant
SARS-Cov-2 [2]; Ag+ 0.108%, virus 5 minutes, 48 pci
  decrease of the viral charge: 0.57 logarithms
SARS-Cov-2 [2]; Ag+ 0.108%, virus 5 minutes, 24 h post-infection
  decrease of the viral charge: 0.91 logarithms
SARS-Cov-2 [2]; diluted aqueous solution, Ag+ 0.002%, virus 5 minutes, 24 hours post-infection
  reduction of the viral charge: 0.82 logarithms
SARS-Cov-2 [3]; Ag+ 0.002%, 72 hours post-infection
  cytopathic effect: small decrease of the cytopathic effect
SARS-Cov-2 [3]; Ag+ 0.108%, 48 hours post-infection
  cytopathic effect compared to cells infected with untreated virus: lower cytopathic effect
